Experimental data: patent US12077503B2, “Substituted cyclic amides and their use as herbicides” (FMC CORPORATION, priority 2015, dated 2024)

Key:
Format in all cases: in vivo
[1] = tested on: Kochia (Kochia scoparia); test: Test A preemergence; details: Preemergence; for Plant response rating, Kochia: 125 g ai/ha, visual injury after approximately 10 d, 0 to 100 scale where 0 is no effect and 100 is complete control; for Kochia plant response rating (0 to 100 scale, 0 is no effect, 100 is complete control): 500 g ai/ha, visual injury approx. 10 d
How it was run: (§1)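 Greenhouse, ~10 d after spray; visual injury vs untreated controls, 0 = no effect, 100 = complete control. Preemergence: directed soil spray over planted seeds. Postemergence: plants 2–10 cm, 1–2 leaf stage. Loam/sand blend. Compound in non-phytotoxic solvent with surfactant.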

[2] = tested on: barnyardgrass (Echinochloa crus-galli); test: Test A preemergence; details: Preemergence; for Plant response rating, Barnyardgrass: 125 g ai/ha, visual injury after approximately 10 d, 0 to 100 scale where 0 is no effect and 100 is complete control; for Barnyardgrass plant response rating (0 to 100 scale, 0 is no effect, 100 is complete control): 500 g ai/ha, visual injury approx. 10 d
How it was run: as §1

[3] = tested on: giant foxtail (Setaria faberii); test: Test A preemergence; details: Preemergence; for Plant response rating, Foxtail, Giant: 125 g ai/ha, visual injury after approximately 10 d, 0 to 100 scale where 0 is no effect and 100 is complete control; for Foxtail, Giant plant response rating (0 to 100 scale, 0 is no effect, 100 is complete control): 500 g ai/ha, visual injury approx. 10 d
How it was run: as §1

[4] = tested on: pigweed (Amaranthus retroflexus); test: Test A preemergence; details: Preemergence; for Plant response rating, Pigweed: 125 g ai/ha, visual injury after approximately 10 d, 0 to 100 scale where 0 is no effect and 100 is complete control; for Pigweed plant response rating (0 to 100 scale, 0 is no effect, 100 is complete control): 500 g ai/ha, visual injury approx. 10 d
[5] = tested on: ragweed (common ragweed, Ambrosia elatior); test: Test A preemergence; details: Preemergence; for Plant response rating, Ragweed: 125 g ai/ha, visual injury after approximately 10 d, 0 to 100 scale where 0 is no effect and 100 is complete control; for Ragweed plant response rating (0 to 100 scale, 0 is no effect, 100 is complete control): 500 g ai/ha, visual injury approx. 10 d
How it was run: as §1

[6] = tested on: ryegrass, Italian (Italian ryegrass, Lolium multiflorum); test: Test A preemergence; details: Preemergence; for Plant response rating, Ryegrass, Italian: 125 g ai/ha, visual injury after approximately 10 d, 0 to 100 scale where 0 is no effect and 100 is complete control; for Ryegrass, Italian plant response rating (0 to 100 scale, 0 is no effect, 100 is complete control): 500 g ai/ha, visual injury approx. 10 d
How it was run: as §1

[7] = tested on: Galium (catchweed bedstraw, Galium aparine); test: Test A postemergence
How it was run: as §1

[8] = tested on: Kochia (Kochia scoparia); test: Test A postemergence
How it was run: as §1

[9] = tested on: barnyardgrass (Echinochloa crus-galli); test: Test A postemergence
How it was run: as §1

[10] = tested on: blackgrass (Alopecurus myosuroides); test: Test A postemergence
How it was run: as §1

[11] = tested on: corn (Zea mays); test: Test A postemergence
How it was run: as §1

[12] = tested on: giant foxtail (Setaria faberii); test: Test A postemergence
How it was run: as §1

[13] = tested on: pigweed (Amaranthus retroflexus); test: Test A postemergence
How it was run: as §1

[14] = tested on: ragweed (common ragweed, Ambrosia elatior); test: Test A postemergence
How it was run: as §1

[15] = tested on: ryegrass, Italian (Italian ryegrass, Lolium multiflorum); test: Test A postemergence
How it was run: as §1

[16] = tested on: wheat (Triticum aestivum); test: Test A postemergence
How it was run: as §1

[17] = tested on: barnyardgrass (Echinochloa crus-galli); test: Test B flooded paddy test; details: Flood, 250 g ai/ha; 0 to 100 scale where 0 is no effect and 100 is complete control; 13 to 15 d
How it was run: (§2)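 Evaluation by eye, against controls, occurred 13–15 d post-treatment in a greenhouse, using a 0 (no effect) to 100 (complete control) scale. Application was into the paddy water, 3 cm deep over the soil, on 2-leaf plants.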

[18] = tested on: ducksalad (Heteranthera limosa); test: Test B flooded paddy test; details: Flood, 250 g ai/ha; 0 to 100 scale where 0 is no effect and 100 is complete control; 13 to 15 d
How it was run: as §2

[19] = tested on: rice (Oryra sativa); test: Test B flooded paddy test; details: Flood, 250 g ai/ha; 0 to 100 scale where 0 is no effect and 100 is complete control; 13 to 15 d
How it was run: as §2

[20] = tested on: sedge, umbrella (small-flower umbrella sedge, Cyperus difformis); test: Test B flooded paddy test; details: Flood, 250 g ai/ha; 0 to 100 scale where 0 is no effect and 100 is complete control; 13 to 15 d
How it was run: as §2

[21] = 125 g ai/ha, postemergence, visual rating after approx. 10 d, 0 to 100 scale (0 no effect, 100 complete control)
[22] = Postemergence, 500 g ai/ha, 0 to 100 scale where 0 is no effect and 100 is complete control

Compound | Plant response rating, Kochia [1] | Kochia plant response rating (0 to 100 scale, 0 is no effect, 100 is complete control) [1] | Plant response rating, Barnyardgrass [2] | Barnyardgrass plant response rating (0 to 100 scale, 0 is no effect, 100 is complete control) [2] | Plant response rating, Foxtail, Giant [3] | Foxtail, Giant plant response rating (0 to 100 scale, 0 is no effect, 100 is complete control) [3] | Plant response rating, Pigweed [4] | Pigweed plant response rating (0 to 100 scale, 0 is no effect, 100 is complete control) [4] | Plant response rating, Ragweed [5] | Ragweed plant response rating (0 to 100 scale, 0 is no effect, 100 is complete control) [5] | Plant response rating, Ryegrass, Italian [6] | Ryegrass, Italian plant response rating (0 to 100 scale, 0 is no effect, 100 is complete control) [6] | Plant response rating, Galium [7, 21] | Plant response rating, Galium [7, 22] | Plant response rating, Kochia [8, 21] | Plant response rating, Kochia [8, 22] | Plant response rating, Barnyardgrass [9, 21] | Plant response rating, Barnyardgrass [9, 22] | Plant response rating, Blackgrass [10, 21] | Plant response rating, Blackgrass [10, 22] | also measured
O=C1NCC(c2ccsc2Cl)C1C(=O)Nc1cccc(F)c1F (stereo not drawn) [Compound 600] | 0 | 20 | 30 | 90 | 30 | 90 | 0 | 0 | 0 | 0 | 0 | 0 | 0 | 0 | 0 | 0 | 0 | 90 | 0 | 0 | Plant response rating, Corn [11, 21]: 0; Plant response rating, Corn [11, 22]: 0; Plant response rating, Foxtail, Giant [12, 21]: 0; Plant response rating, Foxtail, Giant [12, 22]: 30; Plant response rating, Pigweed [13, 21]: 0; Plant response rating, Pigweed [13, 22]: 0; Plant response rating, Ragweed [14, 21]: 0; Plant response rating, Ragweed [14, 22]: 0; Plant response rating, Ryegrass, Italian [15, 21]: 0; Plant response rating, Ryegrass, Italian [15, 22]: 0; Plant response rating, Wheat [16, 21]: 0; Plant response rating, Wheat [16, 22]: 0; Plant response rating, Barnyardgrass [17]: 0; Plant response rating, Ducksalad [18]: 85; Plant response rating, Rice [19]: 15; Plant response rating, Sedge, Umbrella [20]: 0
O=C1NCC(c2cc(Cl)sc2Cl)C1C(=O)Nc1cccc(F)c1F (stereo not drawn) [Compound 601] | 0 | 0 | 60 | 80 | 70 | 80 | 0 | 0 | 0 | 0 | 0 | 0 | 0 | 0 | 0 | 0 | 20 | 70 | 0 | 0 | Plant response rating, Corn [11, 21]: 0; Plant response rating, Corn [11, 22]: 20; Plant response rating, Foxtail, Giant [12, 21]: 20; Plant response rating, Foxtail, Giant [12, 22]: 50; Plant response rating, Pigweed [13, 21]: 0; Plant response rating, Pigweed [13, 22]: 0; Plant response rating, Ragweed [14, 21]: 0; Plant response rating, Ragweed [14, 22]: 0; Plant response rating, Ryegrass, Italian [15, 21]: 0; Plant response rating, Ryegrass, Italian [15, 22]: 0; Plant response rating, Wheat [16, 21]: 0; Plant response rating, Wheat [16, 22]: 20; Plant response rating, Barnyardgrass [17]: 40; Plant response rating, Ducksalad [18]: 75; Plant response rating, Rice [19]: 0; Plant response rating, Sedge, Umbrella [20]: 0
O=C(Nc1ccccc1F)C1C(=O)N(c2ccc([N+](=O)[O-])cc2)CC1c1cccc(C(F)(F)F)c1 (stereo not drawn) [Compound 602] | 0 | 0 | 0 | 0 | 0 | 0 | 0 | 0 | 0 | 0 | 0 | 0 | 0 | 0 | 0 | 0 | 0 | 0 | 0 | 0 | Plant response rating, Corn [11, 21]: 0; Plant response rating, Corn [11, 22]: 0; Plant response rating, Foxtail, Giant [12, 21]: 0; Plant response rating, Foxtail, Giant [12, 22]: 0; Plant response rating, Pigweed [13, 21]: 0; Plant response rating, Pigweed [13, 22]: 0; Plant response rating, Ragweed [14, 21]: 0; Plant response rating, Ragweed [14, 22]: 0; Plant response rating, Ryegrass, Italian [15, 21]: 0; Plant response rating, Ryegrass, Italian [15, 22]: 0; Plant response rating, Wheat [16, 21]: 0; Plant response rating, Wheat [16, 22]: 0; Plant response rating, Barnyardgrass [17]: 0; Plant response rating, Ducksalad [18]: 30; Plant response rating, Rice [19]: 0; Plant response rating, Sedge, Umbrella [20]: 0
C=CCN1CC(c2cccc(C(F)(F)F)c2)C(C(=O)Nc2ccccc2F)C1=O (stereo not drawn) [Compound 605] | 0 | 0 | 30 | 70 | 90 | 90 | 0 | 0 | 0 | 0 | 0 | 20 | 0 | 0 | 0 | 0 | 0 | 80 | 0 | 20 | Plant response rating, Corn [11, 21]: 0; Plant response rating, Corn [11, 22]: 0; Plant response rating, Foxtail, Giant [12, 21]: 20; Plant response rating, Foxtail, Giant [12, 22]: 80; Plant response rating, Pigweed [13, 21]: 0; Plant response rating, Pigweed [13, 22]: 0; Plant response rating, Ragweed [14, 21]: 0; Plant response rating, Ragweed [14, 22]: 0; Plant response rating, Ryegrass, Italian [15, 21]: 0; Plant response rating, Ryegrass, Italian [15, 22]: 0; Plant response rating, Wheat [16, 21]: 0; Plant response rating, Wheat [16, 22]: 30; Plant response rating, Barnyardgrass [17]: 0; Plant response rating, Ducksalad [18]: 50; Plant response rating, Rice [19]: 0; Plant response rating, Sedge, Umbrella [20]: 0
